Here are results for 14 compounds from patent publication US8501946B2 (Glaxo Group Limited, priority 2009, dated 2013).

This experiment has as its target T1, human recombinant P2X7 receptors (Homo sapiens, UniProt Q99572).
T1 construct: expressed in transfected cells
T1 sequence (Q99572 1-595): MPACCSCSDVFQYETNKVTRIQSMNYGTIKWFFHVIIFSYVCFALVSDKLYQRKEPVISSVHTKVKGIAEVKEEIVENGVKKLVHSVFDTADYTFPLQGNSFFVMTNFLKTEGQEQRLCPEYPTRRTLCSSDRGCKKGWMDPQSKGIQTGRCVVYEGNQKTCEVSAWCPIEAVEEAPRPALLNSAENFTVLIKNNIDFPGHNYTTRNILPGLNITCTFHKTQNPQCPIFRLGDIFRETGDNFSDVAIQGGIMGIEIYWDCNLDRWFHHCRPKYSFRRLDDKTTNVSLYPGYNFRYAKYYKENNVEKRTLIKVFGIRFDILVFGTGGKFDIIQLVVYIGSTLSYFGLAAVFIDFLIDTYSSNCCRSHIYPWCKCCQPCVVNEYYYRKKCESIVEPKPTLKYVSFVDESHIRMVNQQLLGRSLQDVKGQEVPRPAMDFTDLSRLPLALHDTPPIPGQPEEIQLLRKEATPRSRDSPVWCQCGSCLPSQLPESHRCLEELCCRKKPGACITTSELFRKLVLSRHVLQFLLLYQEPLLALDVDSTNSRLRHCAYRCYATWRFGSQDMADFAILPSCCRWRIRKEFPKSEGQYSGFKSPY
In words: Ethidium Accumulation Assay 1 (HEK293 cells, ATP-induced ethidium uptake). In kind it is cell-based. Particulars: HEK293 cells expressing human P2X7; 1 mM ATP; sometimes mean of more than one measurement; read-out: Assay 1 (antagonist pIC50 for blocking ATP responses) (converted).

Structures are written as SMILES. A value given as a limit tells only on which side of the number the result lay.

Turning to `COc1ccccc1-c1nnc2n1CCN(C(=O)c1ccc(F)cc1Cl)C2` [Example 127, 7-[(2-chloro-4-fluorophenyl)carbonyl]-3-[2-(methyloxy)phenyl]-5,6,7,8-tetrahydro[1,2,4]triazolo[4,3-a]pyrazine], the IC50 was under 501 nM.
Consider `O=C(c1cccc(C(F)(F)F)c1Cl)N1CCn2c(nnc2-c2ncccc2F)C1` [Example 52, 7-{[2-chloro-3-(trifluoromethyl)phenyl]carbonyl}-3-(3-fluoro-2-pyridinyl)-5,6,7,8-tetrahydro[1,2,4]triazolo [4,3-a]pyrazine], for which the IC50 was under 10 nM.
The figure for `O=C(c1ccc(Cl)c(Cl)c1)N1CCn2c(nnc2-c2cnccn2)C1` [Example 115, 7-[(3,4-dichlorophenyl)carbonyl]-3-(2-pyrazinyl)-5,6,7,8-tetrahydro[1,2,4]triazolo[4,3-a]pyrazine] is under 100 nM; for `O=C(c1ccccc1Cl)N1CCn2c(nnc2-c2ccc(F)cc2)C1` [Example 119, 7-[(2-chlorophenyl)carbonyl]-3-(4-fluorophenyl)-5,6,7,8-tetrahydro[1,2,4]triazolo[4,3-a]pyrazine] it is under 100 nM.
The figure for `O=C(c1ccccc1C(F)(F)F)N1CCn2c(nnc2-c2ccccn2)C1` [Example 122, 3-(2-pyridinyl)-7-{[2-(trifluoromethyl)phenyl]carbonyl}-5,6,7,8-tetrahydro[1,2,4]triazolo[4,3-a]pyrazine] is under 100 nM; for `O=C(c1ccc(F)c(Cl)c1Cl)N1CCn2c(nnc2-c2cnccn2)C1` [Example 113, 7-[(2,3-Dichloro-4-fluorophenyl)carbonyl]-3-(2-pyrazinyl)-5,6,7,8-tetrahydro[1,2,4]triazolo[4,3-a]pyrazine] it is under 10 nM.
The figure for `O=C(c1cccc(Cl)c1Cl)N1CCn2c(nnc2-c2cccnn2)C1` [Example 57, 7-[(2,3-dichlorophenyl)carbonyl]-3-(3-pyridazinyl)-5,6,7,8-tetrahydro[1,2,4]triazolo [4,3-a]pyrazine] is under 100 nM.
On to `O=C(c1ccc(Cl)c(C(F)(F)F)c1)N1CCn2c(nnc2-c2cnccn2)C1` [Example 104, 7-{[4-chloro-3-(trifluoromethyl)phenyl]carbonyl}-3-(2-pyrazinyl)-5,6,7,8-tetrahydro[1,2,4]triazolo [4,3-a]pyrazine], for which the IC50 is under 100 nM.
The figure for `Cc1ccc(C(=O)N2CCn3c(nnc3-c3cnccn3)C2)c(C)c1` [Example 143, 7-[(2,4-dimethylphenyl)carbonyl]-3-(2-pyrazinyl)-5,6,7,8-tetrahydro[1,2,4]triazolo[4,3-a]pyrazine] is under 501 nM.
The figure for `O=C(c1ccc(F)cc1Cl)N1CCn2c(nnc2-c2ccccc2)C1` [Example 30, 7-[(2-Chloro-4-fluorophenyl)carbonyl]-3-phenyl-5,6,7,8-tetrahydro[1,2,4]triazolo[4,3-a]pyrazine] is under 100 nM.
The figure for `O=C(c1cccc(C(F)(F)F)c1Cl)N1CCn2c(nnc2C(F)(F)F)C1` [Example 2, 7-{[2-chloro-3-(trifluoromethyl)phenyl]carbonyl}-3-(trifluoromethyl)-5,6,7,8-tetrahydro[1,2,4]triazolo [4,3-a]pyrazine] is under 100 nM; for `Cc1cc(-c2nnc3n2CCN(C(=O)c2cccc(Cl)c2Cl)C3)no1` [Example 49, 7-[(2,3-dichlorophenyl)carbonyl]-3-(5-methyl-3-isoxazolyl)-5,6,7,8-tetrahydro[1,2,4]triazolo [4,3-a]pyrazine] it is under 100 nM.
Regarding `O=C(c1cccc(C(F)(F)F)c1Cl)N1CCn2c(nnc2N2CCCCC2)C1` [Example 23, 7-{[2-chloro-3-(trifluoromethyl)phenyl]carbonyl}-3-(1-piperidinyl)-5,6,7,8-tetrahydro[1,2,4]triazolo [4,3-a]pyrazine], the IC50 is under 100 nM.
The figure for `O=C(c1cccc(Cl)c1Cl)N1CCn2c(nnc2-c2ccncn2)C1` [Example 62, 7-[(2,3-dichlorophenyl)carbonyl]-3-(4-pyrimdiinyl)-5,6,7,8-tetrahydro[1,2,4]triazolo [4,3-a]pyrazine] is under 10 nM.
